Source: article PMC6134108, “Nystatin-like Pseudonocardia polyene B1, a novel disaccharide-containing antifungal heptaene antibiotic” (Scientific Reports, 2018)
Values after ≈ are worked out from the molar mass of the structure shown. Read-outs that look alike come from different tables or passages of the source.

Tests used:
in vivo = details: male, SD, rat, iv
C. albicans SL38 = test: MIC assay (CLSI M27-A3 microbroth); assay type: cell-based; details: Candida albicans
C. albicans SC5314 = test: MIC assay (CLSI M27-A3 microbroth); assay type: cell-based; details: Candida albicans
[1] = test system: Saccharomyces cerevisiae ATCC9035; test: MIC assay (CLSI M27-A3 microbroth); assay type: cell-based
[2] = test system: Cryptococcus humicola ATCC9949; test: MIC assay (CLSI M27-A3 microbroth); assay type: cell-based; details: Vanrija humicola
[3] = test system: cholesterol-containing membranes; test: Preliminary SPR experiments; assay type: binding; details: unpublished data
Hep3B cells = test: In vitro hepatotoxicity (MTS cell proliferation assay); assay type: cell-based, human
Protocol: (§1) For the minimum inhibitory concentration (MIC) assay, strains for testing were grown on YPD agar for 24 hours, and subcultured to YPD broth medium. Whole strains were incubated for 18 hours at 35 °C by shaking incubator. Grown organisms were diluted with fresh RPMI 1640 medium to appropriate concentration, 5 × 10^4 CFU/ml. Cultures were inoculated to 96-well plates containing antifungal medium. All compounds were dissolved using Dimethyl Sulfoxide (DMSO) and diluted broth media. Fungal diluted solution and antifungal medium were mixed at 1:1 ratio so total 200 ul mixed medium was made. Whole experiment plates were incubated for 24 hours at 37 °C. […] The MICs were calculated in duplicate using the Clinical and Laboratory Standards Institute M27-A3 microbroth methodology. Hemolysis experiments and the 3-(4,5-dimethylthiazol-2-yl)-5-(3-carboxymethoxyphenyl)-2-(4-sulfophenyl)-2H-tetrazolium (MTS) cell proliferation colorimetric assay were performed following known procedures[12],[27],[29].

HepG2 cells = test: as above; assay type: cell-based, human
Protocol: as §1

C. albicans = test: In vitro antifungal activity against four different C. albicans strains (comparison); assay type: cell-based, Candida albicans
Protocol: as §1

## C[C@@H]1[C@H](O)[C@@H](C)/C=C/C=C/C=C/C=C/C=C/C=C/C=C/[C@H](O[C@@H]2O[C@H](C)[C@@H](O)[C@H](N)[C@@H]2O)C[C@@H]2O[C@](O)(C[C@@H](O)C[C@@H](O)[C@H](O)CC[C@@H](O)C[C@@H](O)CC(=O)O[C@H]1C)C[C@H](O)[C@H]2C(=O)O [Amphotericin B, amphotericin B]
In vivo; in vivo, 0.5 mg/kg
  half-life: 8.3 h
In vivo; plasma, 0.5 mg/kg
  AUC(0-inf): 1680 ng·h/mL
  AUC(0-t): 415 ng·h/mL
  MRT inf: 11.6 h
  Vd: 3.5 L/kg
  clearance: 5 mL/min/kg
C. albicans SL38; C. albicans SL38, no visible growth, read-out: Antifungal activity (MIC)
  MIC: 1 µg/mL (≈ 1.08 µM)
C. albicans SC5314; C. albicans SC5314, no visible growth, read-out: Antifungal activity (MIC)
  MIC: 1 µg/mL (≈ 1.08 µM)
[1]; Saccharomyces cerevisiae ATCC9035, read-out: Antifungal activity (MIC)
  MIC: 1 µg/mL (≈ 1.08 µM)
[2]; Cryptococcus humicola ATCC9949, read-out: Antifungal activity (MIC)
  MIC: 0.5 µg/mL (≈ 0.541 µM)
[3]
  affinity compared with NPP B1: higher affinity

## CC(=O)NC1C(OC2C(C)OC(OC3C=CC=CC=CC=CC=CC=CC=CC(C)C(O)C(C)C(C)OC(=O)CC(O)CC(O)CC(O)CCC(O)C(O)CC4(O)CC(O)C(C(=O)O)C(C3)O4)C(O)C2N)OC(CO)C(O)C1O (stereo not drawn) [NPP B1, Nystatin-like Pseudonocardia polyene B1]
Hep3B cells
  in vitro hepatotoxicity compared with AmB: not improved
HepG2 cells
  in vitro hepatotoxicity compared with AmB: not improved
In vivo; plasma, 1 mg/kg
  AUC(0-inf): 13600 ng·h/mL
  AUC(0-t): 10300 ng·h/mL
  MRT inf: 15.6 h
  Vd: 1.1 L/kg
  clearance: 1.67 mL/min/kg
  half-life: 14.5 h
C. albicans
  antifungal activity, fold lower than amphotericin B: 2 fold
C. albicans SL38; SL38, read-out: Antifungal activity (MIC)
  MIC: 2 µg/mL (≈ 1.77 µM)
C. albicans SC5314; SC5314, read-out: Antifungal activity (MIC)
  MIC: 4 µg/mL (≈ 3.55 µM)
[1]; Saccharomyces cerevisiae, ATCC9035, read-out: Antifungal activity (MIC)
  MIC: 2 µg/mL (≈ 1.77 µM)
[2]; ATCC9949, read-out: Antifungal activity (MIC)
  MIC: 1 µg/mL (≈ 0.887 µM)
